Measured values reported in patent publication US8409836B2, “Treatment of cellulosic material and enzymes useful therein” (Roal Oy, priority 2005, dated 2013).

Tests used:
Type in all cases: biochemical
[1] = target: Trichoderma reesei cellobiohydrolase I Tr Cel7A (Tr CBHI/Cel7A) (Trichoderma reesei, UniProt A0A024RXP8); assay: Cellobiose inhibition constant, CNPLac as substrate
Protocol: (§1) The Michaelis-Menten and cellobiose inhibition constants were determined from the cellobiohydrolases produced heterologously in T. reesei (Examples 14 and 15). The enzymes were purified as described in Example 2. Protein concentrations of purified enzymes were measured by their absorption at 280 nm using a theoretical molar extinction co-efficient, which were calculated from the amino acid sequences (Gill and von Hippel, 1989).
(§2) Kinetic constants (Km and kcat values) and cellobiose inhibition constant (Ki) for Tr CBHI/Cel7A, Ta CBH/Cel7A, At CBH/Cel7A and Ct CBH/Cel7A, were measured using CNPLac (2-Chloro-4-nitrophenyl-β-D-lactoside) as substrate at ambient temperature (22° C.) in 50 mM sodium phosphate buffer, pH 5.7. For the determination of the inhibition constant (Ki), eight different substrate concentrations (31-4000 μM) in the presence of a range of five inhibitor concentrations (0-100 μM or 0-400 μM), which bracket the Ki value, were used. All experiments were performed in microtiter plates and the total reaction volume was 200 μl. The initial rates were in each case measured by continuous monitoring the release of the chloro-nitrophenolate anion (CNP, 2-Chloro-4-nitrophenolate) through measurements at 405 nm using Varioscan (Thermolabsystems) microtiter plate reader. The results were calculated from CNP standard curve (from 0 to 100 μM). Enzyme concentrations used were: Tr CBHI/Cel7A 2.46 μM, Ta CBH/Cel7A 1.58 μM, Ct CBH/Cel7A 0.79 μM and At CBH/Cel7A 3 μM. The Km and kcat constants were calculated from the fitting of the Michaelis-Menten equation using the programme of Origin. Lineweaver-Burk plots, replots (LWB slope versus [Glc2; cellobiose]) and Hanes plots were used to distinguish between competitive and mixed type inhibition and to determine the inhibition constants (Ki).

[2] = target: T1, Acremonium thermophilum ALKO4245 cellobiohydrolase At Cel7A (At CBH/Cel7A), recombinant, SEQ ID NO: 6 (Phialemonium thermophilum, UniProt A7WNT9); assay: as above
T1 sequence (A7WNT9 18-523): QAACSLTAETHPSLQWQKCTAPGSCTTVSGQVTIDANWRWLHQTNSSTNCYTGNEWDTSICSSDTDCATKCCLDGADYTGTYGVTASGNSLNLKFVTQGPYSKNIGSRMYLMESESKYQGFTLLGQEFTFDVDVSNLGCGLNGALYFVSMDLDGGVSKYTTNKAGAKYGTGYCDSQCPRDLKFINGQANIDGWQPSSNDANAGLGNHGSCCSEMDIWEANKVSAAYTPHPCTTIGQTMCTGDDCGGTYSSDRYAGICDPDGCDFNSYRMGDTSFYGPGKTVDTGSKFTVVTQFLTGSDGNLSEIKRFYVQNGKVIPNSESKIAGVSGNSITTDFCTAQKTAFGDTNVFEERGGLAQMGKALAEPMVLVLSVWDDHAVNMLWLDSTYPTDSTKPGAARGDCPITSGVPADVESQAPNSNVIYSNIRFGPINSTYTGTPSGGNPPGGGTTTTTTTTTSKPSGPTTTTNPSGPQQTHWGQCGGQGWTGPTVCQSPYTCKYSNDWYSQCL
Protocol: as §1, §2

[3] = target: T2, Chaetomium thermophilum ALKO4265 cellobiohydrolase Ct Cel7A (Ct CBH/Cel7A), recombinant, SEQ ID NO: 8 (Thermochaetoides thermophila, UniProt A7WNU1); assay: as above
T2 sequence (A7WNU1 19-532): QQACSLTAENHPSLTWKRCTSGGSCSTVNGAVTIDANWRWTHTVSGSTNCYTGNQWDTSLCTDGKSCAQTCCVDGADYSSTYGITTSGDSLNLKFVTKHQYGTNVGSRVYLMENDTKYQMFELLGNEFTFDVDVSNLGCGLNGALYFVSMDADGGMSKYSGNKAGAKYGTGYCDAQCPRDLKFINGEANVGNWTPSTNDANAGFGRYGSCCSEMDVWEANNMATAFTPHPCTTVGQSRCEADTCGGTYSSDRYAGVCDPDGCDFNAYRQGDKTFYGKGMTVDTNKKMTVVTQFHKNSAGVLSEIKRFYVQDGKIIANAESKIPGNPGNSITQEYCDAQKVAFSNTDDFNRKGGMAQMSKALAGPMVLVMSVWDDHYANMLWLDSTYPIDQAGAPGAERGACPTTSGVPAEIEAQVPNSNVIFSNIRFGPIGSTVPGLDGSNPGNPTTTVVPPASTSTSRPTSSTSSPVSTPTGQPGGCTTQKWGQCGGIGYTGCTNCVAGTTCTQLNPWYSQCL
Protocol: as §1, §2

[4] = target: T3, Thermoascus aurantiacus ALKO4242 cellobiohydrolase Ta Cel7A (Ta CBH/Cel7A), recombinant, SEQ ID NO: 2 (Thermoascus aurantiacus, UniProt A7WNU2); assay: as above
T3 sequence (A7WNU2 18-457): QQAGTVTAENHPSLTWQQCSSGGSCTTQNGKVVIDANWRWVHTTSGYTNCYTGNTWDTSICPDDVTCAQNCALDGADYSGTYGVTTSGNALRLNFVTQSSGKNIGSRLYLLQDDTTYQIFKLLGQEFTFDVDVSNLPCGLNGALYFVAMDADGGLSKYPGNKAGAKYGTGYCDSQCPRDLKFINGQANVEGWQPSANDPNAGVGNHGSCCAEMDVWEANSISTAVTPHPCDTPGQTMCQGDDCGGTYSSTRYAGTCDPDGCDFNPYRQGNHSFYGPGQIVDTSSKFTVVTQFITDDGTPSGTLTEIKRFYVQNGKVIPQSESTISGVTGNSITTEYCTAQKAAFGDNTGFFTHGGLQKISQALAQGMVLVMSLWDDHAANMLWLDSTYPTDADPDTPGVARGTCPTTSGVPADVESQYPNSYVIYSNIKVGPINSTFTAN
Protocol: as §1, §2

[5] = Temperature optimum of heterologously produced β-glucosidases; settings: temperature range 50-85° C., 60 min
Protocol: (§3) The pH optimum of the heterologously produced β-glucosidases was determined in the universal McIlvaine's buffer within a pH range of 3.0-8.0 using 4-nitrophenyl-β-D-glucopyranoside as substrate. The pH optima for the Acremonium βG—101, Chaetomium βG—76, and Thermoascus βG—81 are pH 4.5, 5.5, and 4.5, respectively (FIG. 7 A). The optimal temperature for enzymatic activity of these β-glucosidases was determined at the temperature range of 50-85° C. as described above. The highest activity of the enzymes was determined to be at 70° C., 65° C., and 75° C. for the Acremonium βG—101/Cel3A, Chaetomium βG—76/Cel3A, and Thermoascus βG—81/Cel3A, respectively (FIG. 7 B).

[6] = pH optimum of heterologously produced β-glucosidases; settings: McIlvaine's buffer, pH range 3.0-8.0, 4-nitrophenyl-β-D-glucopyranoside
Protocol: as §3

[7] = Thermal stability of purified β-glucosidase; settings: 0.1 mg/ml BSA, pH 5.0, 60 min, 4-nitrophenyl-β-D-glucopyranoside
Protocol: (§4) Thermal stability of the purified β-glucosidase was determined at different temperatures. The reaction was performed in the presence of 0.1 mg/ml BSA at pH 5.0 for 60 min using 4-nitrophenyl-β-D-glucopyranoside as substrate. A. thermophilum βG—101 was stable up to 70° C. The Aspergillus reference enzyme (Novozym 188) retained 100% of activity up to 60°.
as §4, with “T. aurantiacus βG—81” for “A. thermophilum βG—101”, “75°” for “70°”, “60° C.” for “60°.”

[8] = β-glucosidase activity on 4-nitrophenyl-β-D-glucopyranoside; settings: purified β-glucosidase, 50° C.
Protocol: (§5) Acremonium Thermophilum ALKO4245 was grown as described in Example 1. The pure β-glucosidase was obtained by sequential purification with hydrophobic interaction and anion exchange chromatography followed by gel filtration. The β-glucosidase activity of the fractions collected during purification was determined using 4-nitrophenyl-β-D-glucopyranoside as substrate (Bailey and Linko, 1990). Protein content was measured by BioRad Assay Kit (Bio-Rad Laboratories) using bovine serum albumine as standard.
as §5, with “Thermoascus aurantiacus ALKO4242” for “Acremonium Thermophilum ALKO4245”, “interaction, anion” for “interaction”, “cation” for “anion”

Chain of Trichoderma reesei cellobiohydrolase I Tr Cel7A (Tr CBHI/Cel7A) (A0A024RXP8 18-514): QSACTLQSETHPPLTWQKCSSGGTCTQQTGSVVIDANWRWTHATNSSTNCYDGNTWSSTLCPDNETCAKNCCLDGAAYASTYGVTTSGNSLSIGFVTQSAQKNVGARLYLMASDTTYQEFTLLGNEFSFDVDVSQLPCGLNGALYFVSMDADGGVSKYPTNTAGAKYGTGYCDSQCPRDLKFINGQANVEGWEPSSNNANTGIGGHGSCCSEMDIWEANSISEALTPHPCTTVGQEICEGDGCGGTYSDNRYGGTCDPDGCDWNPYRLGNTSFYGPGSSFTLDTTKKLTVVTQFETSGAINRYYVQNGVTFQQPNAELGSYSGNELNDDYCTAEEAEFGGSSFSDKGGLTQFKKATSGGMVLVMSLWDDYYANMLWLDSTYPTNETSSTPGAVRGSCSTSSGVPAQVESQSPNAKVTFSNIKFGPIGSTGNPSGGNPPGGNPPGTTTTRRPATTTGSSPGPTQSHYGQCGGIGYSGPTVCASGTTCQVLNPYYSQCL

## OC[C@H]1O[C@@H](O[C@H]2[C@H](O)[C@@H](O)C(O)O[C@@H]2CO)[C@H](O)[C@@H](O)[C@@H]1O (stereo partly shown) [cellobiose]
[1]
  Ki: 19 µM
[1]; Tr Cel7A (control), CNPLac substrate, 50 mM sodium phosphate pH 5.7, 22° C.
  Type of inhibition: competitive
[2]
  Ki: 141 µM
[2]; At CBH/Cel7A vs Tr CBHI/Cel7A, cellobiose
  higher inhibition constant as compared to that of Tr CBHI/Cel7A: over 7 fold
[2]; At Cel7A, CNPLac substrate, 50 mM sodium phosphate pH 5.7, 22° C.
  Type of inhibition: competitive
[3]
  Ki: 39 µM
[3]; Ct Cel7A, CNPLac substrate, 50 mM sodium phosphate pH 5.7, 22° C.
  Type of inhibition: competitive
[4]
  Ki: 107 µM
[4]; Ta Cel7A, CNPLac substrate, 50 mM sodium phosphate pH 5.7, 22° C.
  Type of inhibition: competitive

B1: At βG_101: beta-glucosidase of Acremonium thermophilum ALKO4245, gene At cel3A, amino acid SEQ ID NO: 24 (protein)
chain: MRQALVSLALLASSPVSAARELATSDPFYPSPWMNPEANGWEDAYAKAKAFVSQLTLLEKVNLTTGIGWQGGQCVGNVGSVPRLGLRSLCMQDSPVGIRFGDYVSVFPSGQTTAATFDKGLMNRRGNAMGQEHKGKGVNVLLGPVAGPIGRTPEGGRNWEGFSPDPVLTGIALAETIKGIQDAGVIACAKHFIANEQEHFRQSGEAQGYGFDISESLSSNIDDKTMHELYLWPFADGVRAGVGAIMCSYNQINNSYGCQNSKTLNNLLKNELGFQGFVMSDWQAQHTGAASAVAGLDMTMPGDTSFNTGLSYWGTNLTLAVLNGTVPEYRIDDMVMRIMAAFFKTGQTLDLPPINFDSWTTDTFGPLHFAVNEDRQQINWHVNVQDNHGSLIREIAAKGTVLLKNTGSLPLNKPKFLVVVGDDAGPNPAGPNACPDRGCDVGTLGMAWGSGSANFPYLITPDAALQAQAIKDGTRYESVLSNYQLDQTKALVTQANATAIVFVNADSGEGYINVDGNEGDRKNLTLWHDGDALIKSVAGWNPNTIVVIHSTGPVLVTDWYDHPNITAILWAGVPGQESGNAITDVLYGKVNPSGRSPFTWGPTRESYGTDVLYTPNNGKGAPQQAFSEGVFIDYRHFDRTNASVIYEFGHGLSYTTFQYSNIQVVKSNAGAYKPTTGTTIPAPTFGSFSKDLKDYLFPSDQFRYITQYIYPYLNSTDPAKASLDPHYGKTAAEFLPPHALDSNPQPLLRSSGKNEPGGNRQLYDILYTVTADITNTGSIVGAEVPQLYVSLGGPDDPKVVLRGFDRIRIDPGKTAQFRVTLTRRDLSNWDPAIQDWVISKYPKKVYIGRSSRKLELSADLA
[5]
  Temperature of highest activity: 70 °C
[6]
  pH optimum: 4.5
[7]
  Thermal stability: temperature up to which stable / 100% of activity retained: up to 70 °C
[8]
  Specific activity on 4-nitrophenyl-β-D-glucopyranoside: 1100 nkat/mg
